{"source": "ChEMBL document CHEMBL1201862", "about": "“PubChem BioAssay data set” (2004)", "key": {"[1]": {"target": "T1, Leucine aminopeptidase (Plasmodium falciparum 3D7, UniProt Q8IL11)", "T1 sequence (Q8IL11 whole entry)": "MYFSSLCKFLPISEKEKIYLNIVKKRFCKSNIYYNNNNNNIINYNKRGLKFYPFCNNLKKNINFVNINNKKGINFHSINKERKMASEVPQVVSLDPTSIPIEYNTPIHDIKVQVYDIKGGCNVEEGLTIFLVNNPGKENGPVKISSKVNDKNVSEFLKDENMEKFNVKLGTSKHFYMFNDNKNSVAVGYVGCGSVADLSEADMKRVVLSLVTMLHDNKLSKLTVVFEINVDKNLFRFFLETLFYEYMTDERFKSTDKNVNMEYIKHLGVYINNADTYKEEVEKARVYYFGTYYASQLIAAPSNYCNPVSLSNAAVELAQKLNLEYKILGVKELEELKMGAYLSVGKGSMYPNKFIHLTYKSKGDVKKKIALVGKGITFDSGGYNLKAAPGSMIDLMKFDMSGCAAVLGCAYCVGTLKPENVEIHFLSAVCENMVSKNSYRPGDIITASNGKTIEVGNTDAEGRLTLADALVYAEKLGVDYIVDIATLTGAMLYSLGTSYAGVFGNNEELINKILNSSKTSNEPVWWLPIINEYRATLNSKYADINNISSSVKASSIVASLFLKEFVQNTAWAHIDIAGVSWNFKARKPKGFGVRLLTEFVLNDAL", "test": "P. falciparum M17LAP inhibitors, primary screen, biochemical, fluorogenic H-Leu-NHMec substrate, 1536-well (AID 1619)", "assay_type": "functional"}, "[2]": {"test": "Luminescence Cell-Based Dose Response HTS to Identify Activators of Luciferase Translation or Activity in H4 […] Cells. [Related pubchem assays: 1829 (Project Summary), 1814 (Primary HTS)]", "assay_type": "functional"}, "[3]": {"test": "Luminescence Cell-Based Dose Confirmation HTS to Identify Activators of 5'UTR Stem-Loop Driven Alpha-Synuclein mRNA Translation in H4 Neuroglioblastoma Cells. [Related pubchem assays: 1829 (Project Summary), 1814 (Primary HTS)]", "assay_type": "functional"}, "[4]": {"test_system": "H4", "test": "Luminescence Cell-Based Dose Response HTS to Identify Activators of 5'UTR Stem-Loop Driven Prion Protein mRNA Translation in H4 Neuroglioblastoma Cells. [Related pubchem assays: 1829 (Project Summary), 1814 (Primary HTS)]", "assay_type": "functional", "settings": "Homo sapiens"}, "[5]": {"target": "Luciferin 4-monooxygenase (Photinus pyralis, UniProt P08659)", "sequence (P08659 whole entry)": "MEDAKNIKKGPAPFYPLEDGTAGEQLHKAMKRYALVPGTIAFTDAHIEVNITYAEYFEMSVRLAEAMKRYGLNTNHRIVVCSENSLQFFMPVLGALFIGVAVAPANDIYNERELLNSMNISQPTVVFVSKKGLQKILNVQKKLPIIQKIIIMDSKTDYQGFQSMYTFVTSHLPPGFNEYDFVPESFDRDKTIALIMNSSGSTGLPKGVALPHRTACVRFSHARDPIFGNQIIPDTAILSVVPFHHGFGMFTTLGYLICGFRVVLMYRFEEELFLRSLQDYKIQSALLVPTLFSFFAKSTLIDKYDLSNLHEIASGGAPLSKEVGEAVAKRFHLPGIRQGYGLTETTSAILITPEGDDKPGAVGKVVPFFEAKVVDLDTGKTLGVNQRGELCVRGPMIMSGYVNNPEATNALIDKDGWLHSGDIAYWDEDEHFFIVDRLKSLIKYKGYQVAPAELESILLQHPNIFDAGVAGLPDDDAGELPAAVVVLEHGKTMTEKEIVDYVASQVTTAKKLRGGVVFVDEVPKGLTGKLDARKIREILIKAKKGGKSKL", "test": "inhibition of purified Photinus pyralis luciferase – biochemical, luminescence, dose response (AID 1891)"}, "[6]": {"test": "Luminescence Cell-Based Dose Confirmation HTS to Identify Inhibitors of Platelet Dense Granule Release. [Related pubchem assays: 1663 (Primary HTS), 1678 (Summary of Project)]", "assay_type": "functional"}, "[7]": {"test": "cells", "assay_type": "functional, cell-based"}, "[8]": {"test": "cells", "assay_type": "functional, cell-based", "remark": "listed apart in the source"}, "[9]": {"target": "Cytochrome P450 3A4 (Homo sapiens, UniProt P08684)", "sequence (P08684 whole entry)": "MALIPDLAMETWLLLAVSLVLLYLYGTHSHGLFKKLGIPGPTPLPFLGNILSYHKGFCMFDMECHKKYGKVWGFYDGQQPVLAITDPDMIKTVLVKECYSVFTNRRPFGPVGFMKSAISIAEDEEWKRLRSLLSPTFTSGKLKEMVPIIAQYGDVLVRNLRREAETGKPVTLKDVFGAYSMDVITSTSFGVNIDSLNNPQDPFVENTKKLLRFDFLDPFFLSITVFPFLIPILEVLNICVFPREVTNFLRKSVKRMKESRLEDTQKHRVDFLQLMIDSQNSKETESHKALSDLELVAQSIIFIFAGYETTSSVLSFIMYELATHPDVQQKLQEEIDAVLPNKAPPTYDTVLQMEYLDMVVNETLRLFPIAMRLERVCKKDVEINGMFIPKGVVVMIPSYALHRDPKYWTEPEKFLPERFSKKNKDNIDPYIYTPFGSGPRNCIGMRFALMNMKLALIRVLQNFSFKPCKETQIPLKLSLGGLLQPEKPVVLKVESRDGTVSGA"}, "[10]": {"target": "Cytochrome P450 2C19 (Homo sapiens, UniProt P33261)", "sequence (P33261 whole entry)": "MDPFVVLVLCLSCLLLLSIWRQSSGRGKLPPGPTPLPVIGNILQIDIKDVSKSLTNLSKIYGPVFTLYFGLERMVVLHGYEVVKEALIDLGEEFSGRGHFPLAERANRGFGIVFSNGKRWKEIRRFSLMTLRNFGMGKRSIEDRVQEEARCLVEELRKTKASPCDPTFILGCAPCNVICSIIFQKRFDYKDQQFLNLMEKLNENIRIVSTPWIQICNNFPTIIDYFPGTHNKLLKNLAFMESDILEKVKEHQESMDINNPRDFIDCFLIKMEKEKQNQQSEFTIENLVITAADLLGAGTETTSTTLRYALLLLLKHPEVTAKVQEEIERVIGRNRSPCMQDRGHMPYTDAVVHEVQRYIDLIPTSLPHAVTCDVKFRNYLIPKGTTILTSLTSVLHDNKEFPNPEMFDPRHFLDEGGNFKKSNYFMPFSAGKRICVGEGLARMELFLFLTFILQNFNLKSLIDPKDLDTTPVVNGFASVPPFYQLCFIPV", "test": "Cytochrome panel assay with activity outcomes. Panel member name: p450-cyp2c19 Compounds with AC50 equal or less than 10 uM are considered active", "assay_type": "functional"}, "[11]": {"test": "reduction of Shn3 3'UTR-driven luciferase in osteoblasts – cell-based, Clone20 osteoblasts, firefly luciferase, cherry-picked, dose response (AID 624132)", "assay_type": "functional"}, "[12]": {"test": "non-specific 3'UTR reporter inhibition in Clone20-Shn3RL – cell-based, Renilla luciferase, cherry-picked, counter-screen for Shn3 inhibitor project, dose response (AID 624133)", "assay_type": "functional"}, "[13]": {"target": "Paired box protein Pax-8 (Homo sapiens, UniProt Q06710)", "sequence (Q06710 whole entry)": "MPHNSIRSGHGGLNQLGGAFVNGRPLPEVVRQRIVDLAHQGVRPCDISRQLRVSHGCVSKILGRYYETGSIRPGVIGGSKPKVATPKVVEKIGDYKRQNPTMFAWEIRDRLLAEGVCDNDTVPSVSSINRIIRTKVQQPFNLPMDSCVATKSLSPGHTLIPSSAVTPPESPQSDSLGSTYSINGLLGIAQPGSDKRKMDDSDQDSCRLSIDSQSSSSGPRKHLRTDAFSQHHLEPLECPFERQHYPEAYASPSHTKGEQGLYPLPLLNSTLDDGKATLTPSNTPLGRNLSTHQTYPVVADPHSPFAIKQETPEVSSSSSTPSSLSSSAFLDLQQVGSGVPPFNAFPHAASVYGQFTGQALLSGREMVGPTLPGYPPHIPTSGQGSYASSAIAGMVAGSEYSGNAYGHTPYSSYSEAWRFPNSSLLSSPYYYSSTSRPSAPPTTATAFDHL", "test": "PAX8 transcriptional activity inhibition in RMG-I – RMG-I cells, luciferase, cherry-pick, dose response (AID 687027);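 also: luciferase reporter driven by Pax8 target thyroperoxidase promoter measured by SteadyGlo luminescence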", "assay_type": "functional, cell-based"}, "[14]": {"test": "Luminescence Cell-Based Dose Retest to Confirm Inhibitors of Cancer Stem Cells. [Related pubchem assays (depositor defined):AID2717, AID2721]", "assay_type": "functional", "settings": "Homo sapiens"}, "[15]": {"test_system": "INS1", "test": "INS-1E survival protection against cytokine death – cell-based, luminescence, retest, dose response (AID 449756);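 also: cell death triggered by IL-1 beta plus TNF-alpha plus IFN-gamma mixture; protective hits raise ATP signal compared with cytokine alone wells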", "assay_type": "functional", "settings": "Rattus norvegicus"}, "[16]": {"target": "Glyceraldehyde-3-phosphate dehydrogenase (Homo sapiens, UniProt P04406)", "sequence (P04406 whole entry)": "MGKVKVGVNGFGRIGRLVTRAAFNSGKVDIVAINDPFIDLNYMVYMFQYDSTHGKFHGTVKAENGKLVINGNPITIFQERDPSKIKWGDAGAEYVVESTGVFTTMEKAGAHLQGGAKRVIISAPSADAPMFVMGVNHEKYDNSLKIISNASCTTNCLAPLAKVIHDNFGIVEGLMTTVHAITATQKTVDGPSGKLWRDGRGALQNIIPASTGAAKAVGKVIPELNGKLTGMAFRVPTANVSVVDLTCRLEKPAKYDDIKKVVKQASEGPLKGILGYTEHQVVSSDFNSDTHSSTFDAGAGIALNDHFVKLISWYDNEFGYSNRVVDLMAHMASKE"}}, "note": "Activity calls are given as the source filed them.", "data": [{"smiles": "Cc1cc(NS(=O)(=O)c2ccc(NC(=O)Nc3ccc4c(c3)OCO4)cc2)no1", "values": [{"measurement": "IC50", "setting": "[1]", "value": "13.3 µM (active)"}]}, {"smiles": "OC(COc1ccc2ccccc2c1Cl)CN1CCOCC1", "note": "(stereo not drawn)", "values": [{"measurement": "EC50", "setting": "[2]", "value": "6.79 µM (active)"}, {"measurement": "EC50", "setting": "[3]", "value": "4.79 µM (active)"}, {"measurement": "EC50", "setting": "[4]", "value": "9.81 µM (active)"}]}, {"smiles": "Cn1ccnc1Sc1nc2ccccc2nc1NS(=O)(=O)c1ccccc1", "values": [{"measurement": "IC50", "setting": "[1]", "value": "29.2 µM (active)"}]}, {"smiles": "COc1ccc(NC(=O)CNC(=O)c2ccc([N+](=O)[O-])cc2)cc1", "values": [{"measurement": "EC50", "setting": "[5]", "value": "> 112 µM (not active)"}, {"measurement": "EC50", "setting": "[6]", "value": "15.4 µM (active)"}]}, {"smiles": "Cc1ccc(NC(=O)c2cc(S(=O)(=O)N3CCOCC3)cn2C)cc1F", "values": [{"measurement": "EC50", "setting": "[5]", "value": "> 112 µM (not active)"}, {"measurement": "EC50", "setting": "[6]", "value": "> 112 µM (not active)"}]}, {"smiles": "CCC(Sc1nc(C)cc(O)n1)C(=O)Nc1sc2c(c1C#N)CCCC2", "note": "(stereo not drawn)", "values": [{"measurement": "EC50", "setting": "[7]", "value": "> 350 µM (not active)"}, {"measurement": "EC50", "setting": "[8]", "value": "> 350 µM (not active)"}]}, {"smiles": "CCCCC[C@H](CC(=O)NO)C(=O)N[C@@H](C(=O)N1CCC[C@H]1CO)C(C)C", "values": [{"measurement": "AC50", "setting": "[9]", "value": "5.01 µM (inconclusive)"}, {"measurement": "AC50", "setting": "[10]", "value": "inconclusive"}]}, {"smiles": "CCOC(=O)c1sc(NC(=O)CSc2nnc[nH]2)c(C#N)c1C", "values": [{"measurement": "IC50", "setting": "[1]", "value": "73 µM (active)"}]}, {"smiles": "COC(=O)C1=C(c2ccc3ccccc3c2)C[C@@H]2CC[C@H]1N2C(=O)NCC1CC1", "values": [{"measurement": "AC50", "setting": "[11]", "value": "6.86 µM (active)"}, {"measurement": "AC50", "setting": "[12]", "value": "30.6 µM (active)"}]}, {"smiles": "CCOc1ccc2c(C)c(Cl)c(=O)oc2c1", "values": [{"measurement": "EC50", "setting": "[7]", "value": "> 350 µM (not active)"}, {"measurement": "EC50", "setting": "[8]", "value": "> 350 µM (not active)"}]}, {"smiles": "Cc1ccc2c(c1)C(O)(CC(=O)/C=C/C=C/c1ccccc1)C(=O)N2", "note": "(stereo not drawn)", "values": [{"measurement": "EC50", "setting": "[2]", "value": "11.8 µM (active)"}, {"measurement": "EC50", "setting": "[3]", "value": "17 µM (active)"}, {"measurement": "EC50", "setting": "[4]", "value": "> 120 µM (not active)"}]}, {"smiles": "C[C@@H]1CCCCO[C@@H](CN(C)C(=O)C2CCCCC2)[C@H](C)CN([C@@H](C)CO)C(=O)c2cc(NS(=O)(=O)c3ccc(Cl)cc3)ccc2O1", "values": [{"measurement": "AC50", "setting": "[13]", "value": "9.05 µM (active)"}]}, {"smiles": "C[C@@H]1CN([C@@H](C)CO)C(=O)Cc2cc(NC(=O)Nc3ccc(C(F)(F)F)cc3)ccc2O[C@H]1CN(C)S(=O)(=O)c1ccc(F)cc1", "values": [{"measurement": "AC50", "setting": "[13]", "value": "9.39 µM (active)"}]}, {"smiles": "CCN1C[C@]2(C)CC[C@H](OC)[C@@]34[C@@H]2[C@H](OC(C)=O)C2(OCO[C@@]25C[C@@H](OC)[C@H]2C[C@@]3(O)[C@H]5[C@@H]2OC)[C@H]14", "values": [{"measurement": "AC50", "setting": "[9]", "value": "15.8 µM (inconclusive)"}, {"measurement": "AC50", "setting": "[10]", "value": "inconclusive"}]}, {"smiles": "Cc1cc(O)nc(N/N=C/c2ccccn2)n1", "values": [{"measurement": "AC50", "setting": "[14]", "value": "2.89 µM (active)"}, {"measurement": "AC50", "setting": "[15]", "value": "1.37 µM (active)"}, {"measurement": "EC50", "setting": "[7]", "value": "40.4 µM (active)"}, {"measurement": "EC50", "setting": "[8]", "value": "33.1 µM (active)"}]}, {"smiles": "O=C(O)c1cc(N/N=C/c2ccc(OCc3ccccc3)cc2)ccc1Cl", "values": [{"measurement": "IC50", "setting": "[1]", "value": "20 µM (active)"}]}, {"smiles": "CC1=NNC(=O)C1CC(=O)N/N=C(\\C)c1ccco1", "note": "(stereo not drawn)", "values": [{"measurement": "IC50", "setting": "[1]", "value": "12.3 µM (active)"}]}, {"smiles": "Cc1ccc(C)n1-c1ccc(S(N)(=O)=O)cc1", "values": [{"measurement": "IC50", "setting": "[16]", "value": "> 100 µM (not active)"}]}, {"smiles": "O=C(NCCCO)c1cc(-c2cc(F)c(Cl)cc2Cl)n[nH]1", "values": [{"measurement": "IC50", "setting": "[16]", "value": "> 10 µM (inconclusive)"}]}]}
